Columns and labels:
Experiment in all cases: UV-Vis absorption titration (Kb) and tryptophan fluorescence quenching (KSV […])
Format in all cases: binding
[1] = molecular target: T1, human serum albumin (HSA) (Homo sapiens, UniProt P02768)
T1 construct: gene ALB

[2] = molecular target: T1, human serum albumin (HSA); remark: listed apart in the source
[3] = molecular target: T1, human serum albumin (HSA); remark: listed apart in the source

T1 sequence (P02768 25-609): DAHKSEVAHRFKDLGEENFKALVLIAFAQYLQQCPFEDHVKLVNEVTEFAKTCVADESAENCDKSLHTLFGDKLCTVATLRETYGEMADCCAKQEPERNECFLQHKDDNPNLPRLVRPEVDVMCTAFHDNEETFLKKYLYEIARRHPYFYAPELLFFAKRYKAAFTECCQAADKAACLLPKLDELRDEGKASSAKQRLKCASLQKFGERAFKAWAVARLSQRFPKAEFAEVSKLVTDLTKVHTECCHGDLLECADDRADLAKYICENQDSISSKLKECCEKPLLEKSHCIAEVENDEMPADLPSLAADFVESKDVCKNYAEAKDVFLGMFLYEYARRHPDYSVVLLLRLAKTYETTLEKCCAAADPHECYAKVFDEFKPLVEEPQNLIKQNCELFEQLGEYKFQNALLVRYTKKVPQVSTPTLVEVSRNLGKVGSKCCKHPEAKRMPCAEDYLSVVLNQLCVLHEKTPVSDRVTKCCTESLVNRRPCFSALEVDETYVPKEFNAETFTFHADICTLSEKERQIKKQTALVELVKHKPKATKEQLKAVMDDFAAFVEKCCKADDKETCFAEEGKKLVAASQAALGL

**Q.** Which “UV-Vis absorption titration (Kb) and tryptophan fluorescence quenching (KSV 7.2×)” value [1] does the source give for [(UO2)(OAc)2(CMZ)] here?
**A.** The value was 2.10×10^5.

**Q.** Which “UV-Vis absorption titration (Kb) and tryptophan fluorescence quenching (KSV 9.75)” value [2] does the source give for [(UO2)(OAc)2(MP)] here?
**A.** The value was 2.26×10^5.

**Q.** With [(UO2)(OAc)2(SCZ)] as the substance, how does the “UV-Vis absorption titration (Kb) and tryptophan fluorescence quenching (KSV 9.46)” value [3] read?
**A.** The value was 7×10^4.

Reference: paper PMC8376047, “Complexation of uranyl (UO2)^2+ with bidentate ligands: XRD, spectroscopic, computational, and biological studies” (PLoS ONE, 2021)
